Measurements reported in PMC8759731, “Design, synthesis, and evaluation of novel coumarin-dithiocarbamate derivatives (IDs) as anti-colorectal cancer agents” (Journal of Enzyme Inhibition and Medicinal Chemistry, 2021).

What was measured:
SW620 cells [1] = test: Quantitative RT-PCR, SW620 cells; format: cell-based, human; details: SW620, 0 to 24 μM, 24 h, qRT-PCR
Protocol: Cells (50,000 cells per well) incubated in 6-well plates were treated with compound ID-11 for 24 h. After that, the total RNA was extracted using Total RNA Extraction Reagent (Invitrogen, USA) according to the manufacturer’s instructions and quantified with NanoDrop 2000 (Nanodrop, USA). Then the cDNA was synthesized from total RNA using High-Capacity cDNA Reverse Transcription Kit (Applied Biosystems, USA). The SYBR Green Master reagents (Applied Biosystems, USA) was used to determine the relative expression of mRNA level by quantitative real-time PCR (qRT-PCR). The primer sequences are shown below.

BRD4 (BD1) = molecular target: T1, BRD4 (BD1) (Homo sapiens, UniProt O60885); test: HTRF assay BRD4 (BD1); format: binding
T1 construct: purchased Reaction Biology Corp. RD-11-157
Protocol: (§1) In brief, compounds were serially diluted in Echo plate according to the plate map and DMSO’s final fraction is 0.1%. Then, transferring compounds and DMSO to 384-well assay plate by Echo. After that, 2× Protein and Peptide Mix was added to the assay plate and 2× Detection Mix was then added to assay plate and shook for 30 s. After incubating the plate at room temperature for 1.5 h, the HTRF signals (Excitation wavelength at 340 nm, Emission wavelength at 615 & 665 nm) was read on EnVision (PerkinElmer, UK). (+)-JQ1 (BPS Bioscience, Cat. No. 27402) was used as a positive control. BRD4-1 (RD-11–157) and BRD4-2 (RD-11–158) were purchased from Reaction Biology Corp. (PENN, USA). For Curve fitting, the inhibition values was calculated in Excel using Equation (1): Inhibition %=(Max-Signal)/(Max-Min)*100, and the IC50 values was calculated in XL-Fit using Equation (2): Y = Bottom + (Top-Bottom)/(1+(IC50/X)[…]), Y is %inhibition and X is compound concentration.

SW480 cells = test: Colony formation, SW480 cells; format: cell-based, human; details: 0 to 32 μM for 24 h, then 10 days
Protocol: (§2) SW620 and SW480 cells were seeded in 6-well plates (1000 cells per well) and cultured in RPMI-1640 medium containing 10% FBS overnight. After the cells treatment with DMSO or compound ID-11 (4, 8, 16, and 32 μM) for 24 h, the culture medium was replaced by fresh RPMI-1640 medium (containing 10% FBS) and continue culturing for another 10 days. Then the cells were washed with PBS and fixed with methanol for 15 min and stained with 0.1% crystal violet for another 30 min. Finally, the cells were washed with running water, air-dried and visualised by photographing.

SW620 cells [2] = test: Colony formation, SW620 cells; format: cell-based, human; details: 0 to 32 μM for 24 h, then 10 days
Protocol: as §2

BRD4 (BD2) = molecular target: T2, BRD4 (BD2) (Homo sapiens, UniProt O60885); test: HTRF assay BRD4 (BD2); format: binding; details: read-out: Inhibitory rate at 10 μM, BRD4 (BD2)
T2 construct: purchased Reaction Biology Corp. RD-11-158
Protocol: as §1

For O=c1ccc2cc(CSC(=S)n3ccnc3)ccc2o1 [ID-11, (2-Oxo-2H-chromen-6-yl)methyl 1H-imidazole-1-carbodithioate], the “mRNA relative expression level of Bcl-2” value (SW620 cells [1]) was “also decreased in a concentration dependent way”, the “mRNA relative expression level of c-Myc” value (SW620 cells [1]) was “also decreased in a concentration dependent way” and the inhibition at 10 µM (BRD4 (BD1); 10 μM, read-out: Inhibitory rate at 10 μM, BRD4 (BD1)) was 68.9%. For the same compound, the IC50 (BRD4 (BD1); mean ± SD of three independent experiments) was 7.8 ± 2.2 µM, the colony formation (SW480 cells) was “effectively inhibited” and the colony formation (SW620 cells [2]) was “effectively inhibited”. For the same compound, the inhibition at 10 µM (BRD4 (BD2)) was 35.7%.
